The source of these data is patent publication US20040208842A1, “Antimicrobial cleansing compositions and methods of use” (priority 2001, published 2004).

Where “and” joins values, the source holds several entries; their conditions need not be identical. Identical values can stand only once.

The test system of test [1] is Enterococcus faecalis. As to the kind of experiment: Minimal Bactericidal Concentration (MBC) of EDTA and neomycin in 50 mM Tris. The test is classed as cell-based. From the text: (§1) The organisms of this study were isolated from human burn patients. They included strains of methicillin resistant Staphylococcus aureus, and vancomycin resistant strains of Pseudomonas aeruginosa and Enterococcus faecalis. The bacterial isolates were propagated in or on Brain Heart Infusion broth (BHI), Mueller-Hinton Broth (MHB), blood agar (BA), Mueller-Hinton agar (MHA), enterococcus agar (EA), or 2× nutrient agar (2×NA).

In test [2] the test system is Pseudomonas aeruginosa. The description is as above. The test is classed as cell-based. The note with it: Ps. aeruginosa.
From the text: as §1

Test [3] concerns Staphylococcus aureus. The test is described as above. The format is cell-based. Conditions: Staph. aureus.
From the text: as §1

Test [4] concerns Enterococcus faecalis. As to the kind of experiment: MIC (broth-dilution microtiter) and FIC/isobologram (microtiter checkerboard) of EDTA-Tris and antibiotics. The test is classed as cell-based. Conditions: Ent. faecalis. How it is done:
(§2) Agents and Chem. 210-217. (1967) and Sparks et al., Vet. Res. Comm. 18, 241-249 (1994), incorporated herein by reference in their entireties.
(§3) Then 0.05 ml of an 18-hour old culture of a test organism, containing 10^6 colony-forming units (CFU)/ml, was added to each well. Controls for the culture and media were included in each plate. Plates were covered and incubated at 37° Celsius for 18-24 hours.
(§4) To generate isobolograms, FICs of the two test solutions were plotted individually on the x-axis and y-axis to determine the effect of combining the two test solutions on bacterial growth. A line that curves away from the zero point and the coordinates indicates antagonism.
(§5) A numerical score or fractional inhibitory concentration (FIC) index was determined. The FIC index is equal to the sum of the values of FIC for the individual drugs: [formula]
(§6) An FIC index greater than 1.0 indicates an antagonistic interaction, an FIC index of 1.0 indicates addition, and an FIC index of less than or equal to 0.5 indicates synergism between the two test agents.
as §1

For test [5], the system named is Pseudomonas aeruginosa. The description is as above. The format is cell-based. The note with it: Ps. aeruginosa. How it is done: as §2, §3, §4, §5, §6, §1
In test [6] the test system is Staphylococcus aureus. Described as above. The format is cell-based. Conditions: Staph. aureus. How it is done:
as §2, §3, §4, §5, §6, §1

The subject of test [7] is Enterococcus faecalis. The experiment in a line: Antibiotic resistance profile by disc diffusion on MHA. Note: key: R = resistant; I = intermediate; S = sensitive. The format is cell-based. The note with it: human burn isolate. How it is done: as §1
(§7) Antibiotic resistance profiles were determined by the disc diffusion method on MHA (5).
(Agar diffusion results depend on both activity and mobility in agar.)

Test [8] concerns Pseudomonas aeruginosa. Described as above. Conditions: human burn isolate. The test is classed as cell-based. Here is the method:
as §1, §7

Test [9] concerns Staphylococcus aureus. The test is described as above. The test is classed as cell-based. Conditions: human burn isolate. How it is done:
as §1, §7

The next test has as its system E. coli. As to the kind of experiment: MIC and MBC of cleanser formulation and components. Conditions: cocamidopropyl betaine alone. The format is cell-based, Escherichia coli. How it is done:
(§8) The solution containing 10% cocamidopropyl betaine was selected for further testing. The formulation was tested against Pseudomonas aeruginosa, Proteus mirabilis, […] coli, Staphylococcus intermedius, Malassezia pachydermatis, and Candida albicans.

Test [10] has as its system Staphylococcus intermedius. The experiment in a line: MIC and MBC of cleanser formulation and components. The format is cell-based. Conditions: S. intermedius; cocamidopropyl betaine alone. Here is the method: as §8
For test [11], the system named is Pseudomonas aeruginosa. The experiment in a line: MIC and MBC of cleanser formulation and components. The format is cell-based. The note with it: P. aeruginosa; cocamidopropyl betaine alone. How it is done:
as §8

The next test relates to Proteus mirabilis. The experiment in a line: MIC and MBC of cleanser formulation and components. Conditions: P. mirabilis; cocamidopropyl betaine alone. The test is classed as cell-based. Here is the method:
as §8

Another test deals with Candida albicans. As to the kind of experiment: MIC and MBC of cleanser formulation and components. The test is classed as cell-based. The note with it: C. albicans; cocamidopropyl betaine alone. Here is the method:
as §8

The test system of the next test is Malassezia pachydermatis. The experiment in a line: MIC and MBC of cleanser formulation and components. Conditions: M. pachydermatis; cocamidopropyl betaine alone. The format is cell-based. How it is done:
as §8
Throughout, for Antibiotic resistance profile: key: R = resistant; I = intermediate; S = sensitive.

For the compound neomycin, the “MBC of Neomycin, Individually Administered” value with Enterococcus faecalis [1] (En. faecalis, in 50 mM Tris) came out at 25000 µg/mL; in the test with Pseudomonas aeruginosa [2], 5000 µg/mL; with Staphylococcus aureus [3] (in 50 mM Tris), 3130 µg/mL. For the same compound, the “MBC of Neomycin, Co-administered” value in the test with Enterococcus faecalis [1] (En. faecalis, with EDTA, in 50 mM Tris) was found to be 6250 µg/mL; in the test with Pseudomonas aeruginosa [2] (with EDTA), 40 µg/mL; in the test with Staphylococcus aureus [3] (with EDTA, in 50 mM Tris), 1560 µg/mL. Further, the “Decrease of MBC value when EDTA and neomycin combined compared to individually administered” value is 75% in the test with Enterococcus faecalis [1] (Ent. faecalis); “about 50% and 50%” in the test on Staphylococcus aureus [3]. In addition, the entries for the “MIC, antibiotic Individually Administered” value with Enterococcus faecalis [4] (antibiotic alone), in the test with Pseudomonas aeruginosa [5] (antibiotic alone) and with Staphylococcus aureus [6] (antibiotic alone) were 3130 µg/mL, 1000 µg/mL and 3130 µg/mL, respectively. For the same compound, the Antibiotic resistance profile entry with Enterococcus faecalis [7], in the test on Pseudomonas aeruginosa [8] and in the test on Staphylococcus aureus [9] was “R” in each case.

For `O=C(O)CN(CCN(CC(=O)O)CC(=O)O)CC(=O)O` [EDTA, ethylenediamenetetracetic acid], the “MIC, EDTA Individually Administered” value in the test on Enterococcus faecalis [4] (EDTA in 50 mM Tris alone) came out at 15630 µM; with Pseudomonas aeruginosa [5] (EDTA in 50 mM Tris alone), 1250 µM; with Staphylococcus aureus [6] (EDTA in 50 mM Tris alone) it was 1000 µM.

With `CN[C@H](CC(C)C)C(=O)N[C@H]1C(=O)N[C@@H](CC(N)=O)C(=O)N[C@H]2C(=O)N[C@H]3C(=O)N[C@H](C(=O)N[C@H](C(=O)O)c4cc(O)cc(O)c4-c4cc3ccc4O)[C@H](O)c3ccc(c(Cl)c3)Oc3cc2cc(c3O[C@@H]2O[C@H](CO)[C@@H](O)[C@H](O)[C@H]2O[C@H]2C[C@](C)(N)[C@H](O)[C@H](C)O2)Oc2ccc(cc2Cl)[C@H]1O` [Va, vancomycin], the Antibiotic resistance profile entry was “R” in the test with Enterococcus faecalis [7], “R” in the test on Pseudomonas aeruginosa [8] and “S” in the test with Staphylococcus aureus [9].

gentamicin [Gm]: the figures for the Antibiotic resistance profile result in the test with Enterococcus faecalis [7], in the test on Pseudomonas aeruginosa [8] and with Staphylococcus aureus [9] were “R”, “I” and “S”, respectively.

With cocamidopropyl betaine, the MBC in the test on E. coli is on record as 50% of stock solution; in test [10], 0.1% of stock solution; with Pseudomonas aeruginosa [11], 50% of stock solution; in the test with Proteus mirabilis, 50% of stock solution; in the test with Candida albicans it was 0.3% of stock solution; in the test with Malassezia pachydermatis, 0.3% of stock solution. The MIC is given as 25% of stock solution with E. coli; 0.1% of stock solution in [10]; 25% of stock solution in the test on Pseudomonas aeruginosa [11]; 25% of stock solution with Proteus mirabilis; 0.1% of stock solution with Candida albicans; 0.1% of stock solution with Malassezia pachydermatis.
